pEC50: −log10 of the molar value.
Legend:
A375 cells = test: Assay 1: A375 cells treated with S1152, S1008 and compound, immunofluorescence (sc-365823) signal; type: cell-based; conditions: 1 μM S1152 + 0.5 μM S1008, one day
In short: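 A375 cells treated one day with 1 μM S1152, 0.5 μM S1008 and compound dose ranges in DMEM/10% FCS, then fixed, permeabilised and immunostained. Green signal normalised to nuclear counterstain (ethidium-type or DAPI), log ratio fitted by four-parameter regression for EC50.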

CBP Bromodomain = target: T1, CBP Bromodomain (Homo sapiens, UniProt Q92793); test: Assay 3: CBP bromodomain binding assay (TR-FRET)
T1 construct: purchased Cayman chemicals 600850
T1 sequence (Q92793 1085-1192 limits assumed): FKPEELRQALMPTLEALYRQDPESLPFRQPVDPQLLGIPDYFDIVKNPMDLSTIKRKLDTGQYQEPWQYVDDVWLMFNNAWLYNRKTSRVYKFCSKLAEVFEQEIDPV
Protocol: Assay 3 CBP Bromodomain Binding Assay (TR-FRET)
Compounds solutions of 10 mM in DMSO were pre-diluted in DSMO to 25× stock solutions in DMSO. These were then diluted down to 4× in assay buffer. A dilution series in assay buffer was performed keeping the DMSO concentration stable. 5 μl compound in assay buffer was transferred into the assay plate (provided by assay kit) and the TR-FRET assay Cayman chemicals; 600850) was performed using the manufactor's instructions. After 1 hour incubation at room temperature in the darks, assay plates were read in a Tecan M1000 plate reader or a Tecan Spaks reader using the TR-FRET mode (top read; excitation 340 nm bandwidth […]; emission 620 nm bandwidth […]; gain optimal determined for the first well, number of flashes: 5; flash frequency 100 Hz; integration time: 500 μs, lag time: 100 μs, room temperature). The TR-FRET ratio was calculated by deviding 670 nm emission by 620 nm emission. Values were log transformed and non-linear regression with variable slope (4 parameters) was used to fit values to a dose-response curve to evaluate EC50 values.

OPM-2 = test: Assay 2: multiple myeloma cellular efficacy, PrestoBlue cell proliferation/survival; type: cell-based; conditions: Homo sapiens, 96 h, OPM-2 cells, 4 days
In short: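 Cells seeded at 10000/well and exposed to a compound dose range or vehicle for 4 days, then stained with PrestoBlue for 2 h at 37 °C. Fluorescence was background-subtracted and normalized to vehicle; EC50 came from a four-parameter variable-slope fit against log concentration.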

SMILES	pEC50 (A375 cells)	pEC50 (CBP Bromodomain)	pEC50 (OPM-2)
CC(=O)N1C[C@H](c2nc(Nc3ccccc3)cc(-c3cncnc3)n2)CC[C@@H]1C (racemic) [Compound 00072, (+/−)-cis-1-(2-methyl-5-(6-(phenylamino)-[4,5′-bipyrimidin]-2-yl)piperidin-1-yl)ethan-1-one]	6.00 to 6.70	6.00 to 6.70	6.00 to 6.70
CC(=O)N1C[C@H](c2nc(Nc3cccc(C(F)F)c3)cc(-c3cccnc3)n2)CC[C@@H]1C [Compound 00039, 1-((2S,5R)-5-(4-((3-(difluoromethyl)phenyl)amino)-6-(pyridin-3-yl)pyrimidin-2-yl)-2-methylpiperidin-1-yl)ethan1-one]	> 6.70	6.00 to 6.70	> 6.70
CC(=O)N1C[C@H](c2nc(Nc3cccc(-c4cnn(C)c4)c3)cc(-c3cccnc3)n2)CC[C@@H]1C [Compound 00044, 1-((2S,5R)-2-methyl-5-(4-((3-(1-methyl-1H-pyrazol-4-yl)phenyl)amino)-6-(pyridin-3-yl)pyrimidin-2-yl)piperidin-1-yl)ethan-1-one]	> 6.70	> 6.70	> 6.70
CC(=O)N1C[C@H](c2nc(Nc3cccc4nn(C)cc34)cc(-c3cccnc3)n2)CC[C@@H]1C [Compound 00045, 1-((2S,5R)-2-methyl-5-(4-((2-methyl-2H-indazol-4-yl)amino)-6-(pyridin-3-yl)pyrimidin-2-yl)piperidin-1-yl)ethan-1-one]	> 6.70	> 6.70	6.00 to 6.70
CC(=O)N1C[C@H](c2nc(Nc3cccc(-c4cn(C)nn4)c3)cc(-c3cccnc3)n2)CC[C@@H]1C [Compound 00053, 1-((2S,5R)-2-methyl-5-(4-((3-(1-methyl-1H-1,2,3-triazol-4-yl)phenyl)amino)-6-(pyridin-3-yl)pyrimidin-2-yl)piperidin-1-yl)ethan-1-one]	> 6.70	5.00 to 6.00	> 6.70
CC(=O)N1C[C@H](c2nc(Nc3cccc(-c4cnn(C)c4)c3)cc(-c3cnccn3)n2)CC[C@@H]1C [Compound 00065, 1-((2S,5R)-2-methyl-5-(4-((3-(1-methyl-1H-pyrazol-4-yl)phenyl)amino)-6-(pyrazin-2-yl)pyrimidin-2-yl)piperidin-1-yl)ethan-1-one]	> 6.70	> 6.70	> 6.70
CC(=O)N1C[C@H](c2nc(Nc3ccnc(F)c3)cc(-c3cccnc3)n2)CC[C@@H]1C [Compound 00104, 1-((2S,5R)-5-(4-((2-fluoropyridin-4-yl)amino)-6-(pyridin-3-yl)pyrimidin-2-yl)-2-methylpiperidin-1-yl)ethan-1-one]	> 6.70	> 6.70	> 6.70
CC(=O)N1C[C@H](c2nc(Nc3ccnc(F)c3)cc(-c3cnccn3)n2)CC[C@@H]1C [Compound 00128, 1-((2S,5R)-5-(4-((2-fluoropyridin-4-yl)amino)-6-(pyrazin-2-yl)pyrimidin-2-yl)-2-methylpiperidin-1-yl)ethan-1-one]	> 6.70	> 6.70	> 6.70
CC(=O)N1C[C@H](c2nc(Nc3cc(C)nc(F)c3)cc(-c3cnccn3)n2)CC[C@@H]1C [Compound 00149, 1-((2S,5R)-5-(4-((2-fluoro-6-methylpyridin-4-yl)amino)-6-(pyrazin-2-yl)pyrimidin-2-yl)-2-methylpiperidin-1-yl)ethan1-one]	> 6.70	> 6.70	> 6.70
CC(=O)N1C[C@H](c2nc(Nc3cc(C)nc(N4CCOCC4)c3)cc(-c3cnccn3)n2)CC[C@@H]1C [Compound 00152, 1-((2S,5R)-2-methyl-5-(4-((2-methyl-6-morpholinopyridin-4-yl)amino)-6-(pyrazin-2-yl)pyrimidin-2-yl)piperidin-1-yl)ethan-1-one]	> 6.70	> 6.70	6.00 to 6.70
CC(=O)N1C[C@H](c2nc(Nc3ccnc(C(C)C)c3)cc(-c3cnccn3)n2)CC[C@@H]1C [Compound 00153, 1-((2S,5R)-5-(4-((2-isopropylpyridin-4-yl)amino)-6-(pyrazin-2-yl)pyrimidin-2-yl)-2-methylpiperidin-1-yl)ethan-1-one]	> 6.70	> 6.70	6.00 to 6.70
C[C@H]1CC[C@@H](c2nc(Nc3cccc(F)c3)cc(-c3cccnc3)n2)CN1C(N)=O [Compound 00165, (2S,5R)-5-(4-((3-fluorophenyl)amino)-6-(pyridin-3-yl)pyrimidin-2-yl)-2-methylpiperidine-1-carboxamide]	5.00 to 6.00	5.00 to 6.00	–
CC(=O)N1C[C@H](c2nc(Nc3ccnc(-c4cn(C)nn4)c3)cc(-c3cnccn3)n2)CC[C@@H]1C [Compound 00168, 1-((2S,5R)-2-methyl-5-(4-((2-(1-methyl-1H-1,2,3-triazol-4-yl)pyridin-4-yl)amino)-6-(pyrazin-2-yl)pyrimidin-2-yl)piperidin-1-yl)ethan-1-one]	> 6.70	> 6.70	> 6.70

Second part, led by results:

pEC50 (A375 cells)	pEC50 (CBP Bromodomain)	SMILES	pEC50 (OPM-2)
> 6.70	> 6.70	CC(=O)N1C[C@H](c2nc(Nc3ccccc3)cc(-c3cncc4[nH]ccc34)n2)CC[C@@H]1C (racemic) [Compound 00073, (+/−)-c/s-1-(2-methyl-5-(4-(phenylamino)-6-(1H-pyrrolo[2,3-c]pyridin-4-yl)pyrimidin-2-yl)piperidin-1-yl)ethan-1-one]	> 6.70
> 6.70	> 6.70	CC(=O)N1C[C@H](c2nc(Nc3cncc(C)c3)cc(-c3cccnc3)n2)CC[C@@H]1C [Compound 00009]	6.00 to 6.70
> 6.70	> 6.70	CNC(=O)c1cc(F)cc(Nc2cc(-c3cccnc3)nc([C@@H]3CC[C@H](C)N(C(C)=O)C3)n2)c1 [Compound 00041, 3-((2-((3R,6S)-1-acetyl-6-methylpiperidin-3-yl)-6-(pyridin-3-yl)pyrimidin-4-yl)amino)-5-fluoro-N-methylbenzamide]	> 6.70
> 6.70	5.00 to 6.00	CC(=O)N1C[C@H](c2nc(Nc3cc(F)cc(-c4cnn(C)c4)c3)cc(-c3cnccn3)n2)CC[C@@H]1C [Compound 00066, 1-((2S,5R)-5-(4-((3-fluoro-5-(1-methyl-1H-pyrazol-4-yl)phenyl)amino)-6-(pyrazin-2-yl)pyrimidin-2-yl)-2-methylpiperidin-1-yl)ethan-1-one]	> 6.70
> 6.70	> 6.70	CC(=O)N1C[C@H](c2nc(Nc3cc(F)cc(-c4cn(C)nn4)c3)cc(-c3cnccn3)n2)CC[C@@H]1C [Compound 00069, 1-((2S,5R)-5-(4-((3-fluoro-5-(1-methyl-1H-1,2,3-triazol-4-yl)phenyl)amino)-6-(pyrazin-2-yl)pyrimidin-2-yl)-2-methylpiperidin-1-yl)ethan-1-one]	> 6.70
> 6.70	> 6.70	CC(=O)N1C[C@H](c2nc(Nc3cccc(-c4cn(C)nn4)c3)cc(-c3cncc4c3ccn4C)n2)CC[C@@H]1C [Compound 00086, 1-((2S,5R)-2-methyl-5-(4-((3-(1-methyl-1H-1,2,3-triazol-4-yl)phenyl)amino)-6-(1-methyl-1H-pyrrolo[2,3-c]pyridin-4-yl)pyrimidin-2-yl)piperidin-1-yl)ethan-1-one]	> 6.70
> 6.70	> 6.70	CC(=O)Nc1cc(F)cc(Nc2cc(-c3cncc4c3ccn4C)nc([C@@H]3CC[C@H](C)N(C(C)=O)C3)n2)c1 [Compound 00092, N-(3-((2-((3R,6S)-1-acetyl-6-methylpiperidin-3-yl)-6-(1-methyl-1H-pyrrolo[2,3-c]pyridin-4-yl)pyrimidin-4-yl)amino)-5-fluorophenyl)acetamide]	> 6.70
> 6.70	> 6.70	CC(=O)N1C[C@H](c2nc(Nc3ccnc(C)c3)cc(-c3cncc(C)c3)n2)CC[C@@H]1C [Compound 00103, 1-((2S,5R)-2-methyl-5-(4-(5-methylpyridin-3-yl)-6-((2-methylpyridin-4-yl)amino)pyrimidin-2-yl)piperidin-1-yl)ethan-1-one]	> 6.70
